Here are results for 16 compounds from patent publication US11325938B2, “CD73 inhibitors” (ORIC Pharmaceuticals, Inc., priority 2018, dated 2022).

Bounds are passed on as bounds.

This assay deals with CD73 (Homo sapiens (Human), UniProt P21589). Put plainly: Biochemical assay: inhibition of CD73 activity (AMP hydrolysis, Malachite Green readout). Conditions: CD73 0.3208 nM, AMP 15 μM, 25 mM Tris-HCl pH 7.4, RT, absorbance 620 nm. In short, it runs like this: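 Human CD73 (320 pM final) preincubated 15 min at RT with compounds (10-point ½-log titration from 100 μM, duplicates) in 25 mM Tris-HCl pH 7.4, 5 mM MgCl2, 0.01% Brij-35, 0.01% BSA. 15 μM AMP added, 10 min at RT; released phosphate read by Malachite Green absorbance; IC50 determined.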
Chain of CD73 (P21589 27-574): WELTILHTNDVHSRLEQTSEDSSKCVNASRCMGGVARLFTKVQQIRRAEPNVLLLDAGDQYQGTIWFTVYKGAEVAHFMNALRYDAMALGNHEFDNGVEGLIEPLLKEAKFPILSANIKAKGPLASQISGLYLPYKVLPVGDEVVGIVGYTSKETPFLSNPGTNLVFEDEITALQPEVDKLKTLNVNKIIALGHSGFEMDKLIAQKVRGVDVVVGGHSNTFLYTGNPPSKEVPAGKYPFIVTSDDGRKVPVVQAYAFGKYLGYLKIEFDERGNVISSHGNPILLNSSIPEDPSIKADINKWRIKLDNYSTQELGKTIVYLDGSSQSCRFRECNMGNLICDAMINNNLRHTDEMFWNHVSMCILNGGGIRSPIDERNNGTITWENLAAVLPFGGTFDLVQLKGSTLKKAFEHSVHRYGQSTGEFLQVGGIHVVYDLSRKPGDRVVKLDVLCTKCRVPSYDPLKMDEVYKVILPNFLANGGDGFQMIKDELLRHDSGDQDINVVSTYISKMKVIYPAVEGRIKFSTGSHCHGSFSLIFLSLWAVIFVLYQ

For `O=C(O)c1ccc(C[C@@](CO)(OC[C@H]2O[C@@H](n3ncc4c(NC5CCCC5)nc(Cl)nc43)[C@H](O)[C@@H]2O)P(=O)(O)O)cc1` (racemic) [Example 187, rac-4-((R)-2-(((2R,3S,4R,5R)-5-(6-chloro-4-(cyclopentylamino)-1H-pyrazolo[3,4-d]pyrimidin-1-yl)-3,4-dihydroxytetrahydrofuran-2-yl)methoxy)-3-hydroxy-2-phosphonopropyl)benzoic acid], the IC50 was in the range of 100 to 1000 nM.

The compound `CC(COCCO)(OC[C@H]1O[C@@H](n2ncc3c(NC4CCCC4)nc(Cl)nc32)[C@H](O)[C@@H]1O)P(=O)(O)O` (stereo partly drawn) [Example 85, (2-(((2R,3S,4R,5R)-5-(6-Chloro-4-(cyclopentylamino)-1H-pyrazolo[3,4-d]pyrimidin-1-yl)-3,4-dihydroxytetrahydrofuran-2-yl)methoxy)-1-(2-hydroxyethoxy)propan-2-yl)phosphonic acid] had an IC50 of at most 100 nM.

`CSCC(C)(OC[C@H]1O[C@@H](n2ncc3c(NC4CCCC4)nc(Cl)nc32)[C@H](O)[C@@H]1O)P(=O)(O)O` (stereo partly drawn) [Example 55, (2-(((2R,3S,4R,5R)-5-(6-Chloro-4-(cyclopentylamino)-1H-pyrazolo[3,4-d]pyrimidin-1-yl)-3,4-dihydroxytetrahydrofuran-2-yl)methoxy)-1-(methylthio)propan-2-yl)phosphonic acid] displayed an IC50 of at most 100 nM.

`O=P(O)(O)COC[C@H]1O[C@@H](n2nnc3c(NCc4ccccc4Cl)cc(Cl)nc32)[C@H](O)[C@@H]1O` [Example 26, ((((2R,3S,4R,5R)-5-(5-chloro-7-((2-chlorobenzyl)amino)-3H-[1,2,3]triazolo[4,5-b]pyridin-3-yl)-3,4-dihydroxytetrahydrofuran-2-yl)methoxy)methyl)phosphonic acid] showed an IC50 of at most 100 nM.

The compound `O=P(O)(O)C(CO)(COCC(F)(F)F)OC[C@H]1O[C@@H](n2ncc3c(NC4CCCC4)nc(Cl)nc32)[C@H](O)[C@@H]1O` (mixture of isomers) [Example 208, rac-(2-(((2R,3S,4R,5R)-5-(6-chloro-4-(cyclopentylamino)-1H-pyrazolo[3,4-d]pyrimidin-1-yl)-3,4-dihydroxytetrahydrofuran-2-yl)methoxy)-1-hydroxy-3-(2,2,2-trifluoroethoxy)propan-2-yl)phosphonic acid] yielded an IC50 of at most 100 nM.

In the case of `O=P(O)(O)C(CO)(CO)OC[C@H]1O[C@@H](n2ncc3c(N[C@@H]4CCCc5ccccc54)nc(Cl)nc32)[C@H](O)[C@@H]1O` (racemic) [Example 189, rac-(2-(((2R,3S,4R,5R)-5-(6-chloro-4-(((R)-1,2,3,4-tetrahydronaphthalen-1-yl)amino)-1H-pyrazolo[3,4-d]pyrimidin-1-yl)-3,4-dihydroxytetrahydrofuran-2-yl)methoxy)-1,3-dihydroxypropan-2-yl)phosphonic acid], the IC50 was at most 100 nM.

Compound `COC[C@](CO)(OC[C@H]1O[C@@H](n2ncc3c(NC4CCCC4)nc(Cl)nc32)[C@H](O)[C@@H]1O)P(=O)(O)O` [Example 150, ((R)-2-(((2R,3S,4R,5R)-5-(6-chloro-4-(cyclopentylamino)-1H-pyrazolo[3,4-d]pyrimidin-1-yl)-3,4-dihydroxytetrahydrofuran-2-yl)methoxy)-1-hydroxy-3-methoxypropan-2-yl)phosphonic acid] showed an IC50 of at most 100 nM.

The compound `COCC(OC[C@@H]1O[C@H](n2ncc3c(NC4CCCC4)nc(Cl)nc32)[C@@H](O)[C@H]1O)(C(=O)O)P(=O)(O)O` (mixture of isomers) [Example 220, rac-(R)-2-(((2S,3R,4S,5S)-5-(6-chloro-4-(cyclopentylamino)-1H-pyrazolo[3,4-d]pyrimidin-1-yl)-3,4-dihydroxytetrahydrofuran-2-yl)methoxy)-3-methoxy-2-phosphonopropanoic acid] returned an IC50 of 100 to 1000 nM.

On to `O=C(O)c1cccc(CC(CO)(OC[C@H]2O[C@@H](n3ncc4c(NC5CCCC5)nc(Cl)nc43)[C@H](O)[C@@H]2O)P(=O)(O)O)c1` (mixture of isomers) [Example 190, rac-3-(2-(((2R,3S,4R,5R)-5-(6-chloro-4-(cyclopentylamino)-1H-pyrazolo[3,4-d]pyrimidin-1-yl)-3,4-dihydroxytetrahydrofuran-2-yl)methoxy)-3-hydroxy-2-phosphonopropyl)benzoic acid], for which the IC50 was at most 100 nM.

For the compound `O=P(O)(O)C(CO)OC[C@H]1O[C@@H](n2nnc3c(NC4CCCC4)nc(Cl)nc32)[C@H](O)[C@@H]1O` (stereo partly drawn) [Example 58, (1-(((2R,3S,4R,5R)-5-(5-Chloro-7-(cyclopentylamino)-3H-[1,2,3]triazolo[4,5-d]pyrimidin-3-yl)-3,4-dihydroxytetrahydrofuran-2-yl)methoxy)-2-hydroxyethyl)phosphonic acid], the IC50 was at most 100 nM.

`O=P(O)(O)[C@@H](CO)OC[C@H]1O[C@@H](n2ncc3c(NC4CCCC4)nc(Cl)nc32)[C@H](O)[C@@H]1O` (single isomer, unassigned) [Example 3] yielded an IC50 of at most 100 nM.

As to `CC(OC[C@H]1O[C@@H](n2ncc3c(NC4CCCC4)nc(Cl)nc32)[C@H](O)[C@@H]1O)P(=O)(O)O` (stereo partly drawn) [Example 5, (1-(((2R,3S,4R,5R)-5-(6-Chloro-4-(cyclopentylamino)-1H-pyrazolo[3,4-d]pyrimidin-1-yl)-3,4-dihydroxytetrahydrofuran-2-yl)methoxy)ethyl)phosphonic acid], the IC50 is at most 100 nM.

For `O=P(O)(O)C(COCCO)OC[C@H]1O[C@@H](n2ncc3c(NC4CCCC4)nc(Cl)nc32)[C@H](O)[C@@H]1O` (mixture of isomers) [Example 166, rac-(1-(((2R,3S,4R,5R)-5-(6-chloro-4-(cyclopentyalmino)-1H-pyrazolo[3,4-d]pyrimidin-1-yl)-3,4-dihydroxytetrahydrofuran-2-yl)methoxy)-2-(2-hydroxyethoxy)ethyl)phosphonic acid], the IC50 was at most 100 nM.

`Cn1cnc(CC(CO)(OC[C@H]2O[C@@H](n3ncc4c(NC5CCCC5)nc(Cl)nc43)[C@H](O)[C@@H]2O)P(=O)(O)O)c1` (stereo partly drawn) [Example 94, (2-(((2R,3S,4R,5R)-5-(6-chloro-4-(cyclopentylamino)-1H-pyrazolo[3,4-d]pyrimidin-1-yl)-3,4-dihydroxytetrahydrofuran-2-yl)methoxy)-1-hydroxy-3-(1-methyl-1H-imidazol-4-yl)propan-2-yl)phosphonic acid] gave an IC50 of 100 to 1000 nM.

`NC(=O)OC[C@@](CO)(OC[C@H]1O[C@@H](n2ncc3c(NC4CCCC4)nc(Cl)nc32)[C@H](O)[C@@H]1O)P(=O)(O)O` (racemic) [Example 215, rac-((R)-1-(carbamoyloxy)-2-(((2S,3R,4S,5S)-5-(6-chloro-4-(cyclopentylamino)-1H-pyrazolo[3,4-d]pyrimidin-1-yl)-3,4-dihydroxytetrahydrofuran-2-yl)methoxy)-3-hydroxypropan-2-yl)phosphonic acid] showed an IC50 of at most 100 nM.

Regarding `CC(CO)(OC[C@H]1O[C@@H](n2ncc3c(NC4CCC4)nc(Cl)nc32)[C@H](O)[C@@H]1O)P(=O)(O)O` (stereo partly drawn) [Example 130, (2-(((2R,3S,4R,5R)-5-(6-chloro-4-(cyclobutylamino)-1H-pyrazolo[3,4-d]pyrimidin-1-yl)-3,4-dihydroxytetrahydrofuran-2-yl)methoxy)-1-hydroxypropan-2-yl)phosphonic acid], the IC50 was at most 100 nM.
